Legend:
Format in all cases: cell-based
[1] = tested on: Colo357FG pancreatic cancer cell line; assay: Antiproliferative activity, MTT cell viability; conditions: COLO 357/FG
Method: The antiproliferative activity of the Compound of Example 1 and Example 7 have been shown in a Colo357FG pancreatic cancer cell line as follows:
(§1) A variety of cell types were seeded at a density of 50,000 cells/100 μl per well onto 96-well plates and cultured for 24-48 h in DMEM medium until they reached confluency. At confluency, 25 μl of fresh media containing WP1220 at various concentrations (0 to 100 μM) was added to the wells and incubated for 72 h at 37° C. The complex was removed, 100 μl of fresh medium was added and the cells were incubated overnight. Medium was removed and fresh medium (100 μl) was added to each well along with (20 μl) MTT solution (5 mg/ml in PBS) before incubating the cells for a further 4 h at 37° C. The reaction product was solubilised with sodium dodecyl sulfate (100 μl, 10%, w/v) in 0.01 N HCl overnight before quantifying the product using a microplate reader at 590 nm and comparing with control cells. The experiment was carried out in triplicate (n=3).

[2] = tested on: STAT3; assay: Western blot, inhibition of STAT3 phosphorylation in Colo357FG tumor cell line; conditions: FIG. 1
Method: (§2) Using phospho-tyrosine STAT3 (Y705), phospho-tyrosine Jak2 (Y1007/1008), total STAT3, total Jak2, Bcl-xL, actin (Cell Signaling Technology, Danvers, Mass.), and survivin (R&D Systems, Minneapolis, Minn.) antibodies, western blots were performed using the following methods. Briefly, (1) Samples were prepared from cells that were homogenized in a buffer protecting the protein of interest from degradation; (2) The sample was then separated using SDS-PAGE (10-15 μg protein/well) and then transferred to a membrane for detection; and (3) The membrane was incubated with a generic protein (milk proteins) to bind to any remaining sites on the membrane. A primary antibody was then added to the solution which is able to bind to its specific protein; (4) A secondary antibody-enzyme conjugate, which recognizes the primary antibody was then added to find locations where the primary antibody has bound.

[3] = tested on: SCOVE3 ovarian cancer cell; assay: SCOVE3 ovarian cancer cell growth (MTT); conditions: SCOVE3, FIG. 3
Method: as §1

[4] = tested on: U87 brain tumor; assay: Cell survival of U87 brain tumor (MTT); conditions: U87, FIG. 2
Method: as §1

[5] = tested on: STAT-3; assay: Western blot, STAT-3 phosphorylation in D54 brain tumor cell lines; conditions: FIG. 4
Method: as §2

SMILES	IC50 [1] [µM]	inhibition of SCOVE3 ovarian cancer cell growth [3]	cell survival of the U87 brain tumor [4]	also measured
C[C@H](NC(=O)/C(C#N)=C/C=C/c1cccc(Br)n1)c1ccccc1 [Example 1, (2E,4E)-5-(6-bromopyridin-2-yl)-2-cyano-N-[(1S)-1-phenylethyl]penta-2,4-dienamide]	3.2	–	–	inhibition of STAT3 phosphorylation [2]: inhibition of STAT3 phosphorylation
C[C@H](NC(=O)/C(C#N)=C/C=C/c1cccc(Cl)n1)c1ccccc1 [Example 2, (2E,4E)-5-(6-chloropyridin-2-yl)-2-cyano-N-[(1S)-1-phenylethyl]penta-2,4-dienamide]	–	inhibition of the SCOVE3 ovarian cancer cell growth	lack of cell survival	–
N#C/C(=C\C=C\c1cccc(Br)n1)C(=O)NCc1ccccc1 [Example 4, (2E,4E)-N-benzyl-5-(6-bromopyridin-2-yl)-2-cyanopenta-2,4-dienamide]	–	inhibition of the SCOVE3 ovarian cancer cell growth	lack of cell survival	–
N#C/C(=C\C=C\c1cccc(Br)n1)C(=O)N[C@H](c1ccccc1)C1CC1 [Example 7, (2E,4E)-5-(6-bromopyridin-2-yl)-2-cyano-N-[(S)-cyclopropyl(phenyl)methyl]penta-2,4-dienamide]	5.4	–	–	–
CCC[C@H](NC(=O)/C(C#N)=C/C=C/c1cccc(Br)n1)c1ccccc1 [Example 9, (2E,4E)-5-(6-bromopyridin-2-yl)-2-cyano-N-[(1S)-1-phenylbutyl]penta-2,4-dienamide]	–	–	–	inhibition of IL-2 phosphorylation of STAT-3 [5]: constitutively inhibiting the IL-2 phosphorylation of STAT-3

From US9000179B2, “Inhibitors of proliferation and activation of signal transducer and activator of transcription (STATs)” (Board of Regents, The University of Texas System, priority 2008, dated 2015)
